The supplement of paper PMC10132981, “Formate overflow drives toxic folate trapping in MTHFD1 inhibited cancer cells” (Nature Metabolism, 2023)
Several values for one entry are separate records, joined by “and”; a condition that tells them apart may be missing. Equal entries are not always repeated.

Key:
SW620 MTHFD2-/- = experiment: cell viability relative to vehicle (resazurin, 96 h); higher = more viable; conditions: base medium: RPMI + dialysed FBS
Description: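 SW620 WT or MTHFD2-/- cells were treated for 96 h with a compound dilution series (log10 M) in RPMI with normal or dialysed FBS. Viability was read by resazurin and is given as % of vehicle.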

SW620 = experiment: cell viability relative to lowest-dose well (resazurin, 96 h); higher = more viable; conditions: RPMI + 10% FBS
Method in brief: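 Compounds from 10 mM DMSO stocks were dispensed as dilution series onto HCT116 (500 cells/well) or SW620 (1,000 cells/well) cells growing in 384-well plates in 50 µl RPMI, 10% FBS and a metabolite supplement. Plates were incubated 96 h at 37 °C, 5% CO2, then resazurin (10 µg ml^−1) was added and its conversion to resorufin read by fluorescence at 595 nm after 5 h. Viability is shown as percent of the lowest-dose well for independent replicate cultures.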

Cc1[nH]nc2c1C(c1cc(CO)cc(-c3ccccc3)c1)(C(C)C)C(C#N)=C(N)O2 (stereo not drawn) [SHIN1]
SW620 MTHFD2-/-
Conditions	cell viability [%]
log10 compound concentration (M): -5, supplement / serum: Hypoxanthine	88.2
log10 compound concentration (M): -5, supplement / serum: Hypoxanthine+Sodium Formate	91.8
log10 compound concentration (M): -5, supplement / serum: Sodium Formate	83.5
log10 compound concentration (M): -5, supplement / serum: Vehicle	12.1
log10 compound concentration (M): -5.47712, supplement / serum: Hypoxanthine	102
log10 compound concentration (M): -5.47712, supplement / serum: Hypoxanthine+Sodium Formate	109
log10 compound concentration (M): -5.47712, supplement / serum: Sodium Formate	104
log10 compound concentration (M): -5.47712, supplement / serum: Vehicle	13.6
log10 compound concentration (M): -5.95424, supplement / serum: Hypoxanthine	105
log10 compound concentration (M): -5.95424, supplement / serum: Hypoxanthine+Sodium Formate	107
log10 compound concentration (M): -5.95424, supplement / serum: Sodium Formate	99.9
log10 compound concentration (M): -5.95424, supplement / serum: Vehicle	13.9
log10 compound concentration (M): -6.43136, supplement / serum: Hypoxanthine	103
log10 compound concentration (M): -6.43136, supplement / serum: Hypoxanthine+Sodium Formate	109
log10 compound concentration (M): -6.43136, supplement / serum: Sodium Formate	102
log10 compound concentration (M): -6.43136, supplement / serum: Vehicle	14.8
log10 compound concentration (M): -6.90849, supplement / serum: Hypoxanthine	101
log10 compound concentration (M): -6.90849, supplement / serum: Hypoxanthine+Sodium Formate	104
log10 compound concentration (M): -6.90849, supplement / serum: Sodium Formate	108
log10 compound concentration (M): -6.90849, supplement / serum: Vehicle	16.4
log10 compound concentration (M): -7.38561, supplement / serum: Hypoxanthine	88.3
log10 compound concentration (M): -7.38561, supplement / serum: Hypoxanthine+Sodium Formate	86.8
log10 compound concentration (M): -7.38561, supplement / serum: Sodium Formate	85.4
log10 compound concentration (M): -7.38561, supplement / serum: Vehicle	14
log10 compound concentration (M): -7.86273, supplement / serum: Hypoxanthine	92.2
log10 compound concentration (M): -7.86273, supplement / serum: Hypoxanthine+Sodium Formate	99.9
log10 compound concentration (M): -7.86273, supplement / serum: Sodium Formate	90.9
log10 compound concentration (M): -7.86273, supplement / serum: Vehicle	27.1
log10 compound concentration (M): -8.33985, supplement / serum: Hypoxanthine	101
log10 compound concentration (M): -8.33985, supplement / serum: Hypoxanthine+Sodium Formate	102
log10 compound concentration (M): -8.33985, supplement / serum: Sodium Formate	99.8
log10 compound concentration (M): -8.33985, supplement / serum: Vehicle	47.3
log10 compound concentration (M): -8.81697, supplement / serum: Hypoxanthine	101
log10 compound concentration (M): -8.81697, supplement / serum: Hypoxanthine+Sodium Formate	103
log10 compound concentration (M): -8.81697, supplement / serum: Sodium Formate	99
log10 compound concentration (M): -8.81697, supplement / serum: Vehicle	65.1
log10 compound concentration (M): -9.29409, supplement / serum: Hypoxanthine	96.8
log10 compound concentration (M): -9.29409, supplement / serum: Hypoxanthine+Sodium Formate	99.9
log10 compound concentration (M): -9.29409, supplement / serum: Sodium Formate	97.1
log10 compound concentration (M): -9.29409, supplement / serum: Vehicle	85.7
log10 compound concentration (M): -9.77121, supplement / serum: Hypoxanthine	102
log10 compound concentration (M): -9.77121, supplement / serum: Hypoxanthine+Sodium Formate	105
log10 compound concentration (M): -9.77121, supplement / serum: Sodium Formate	98.8
log10 compound concentration (M): -9.77121, supplement / serum: Vehicle	92.1

Cc1c(N2CCN(C)[C@@H](C)C2)ccc2c3c(c(=O)oc12)CN(C(=O)c1ccc(NS(C)(=O)=O)c(OC(F)(F)F)c1)CC3
SW620 MTHFD2-/-
Conditions	cell viability [%]
log10 compound concentration (M): -5, supplement / serum: 50μM Hypoxanthine	95.4
log10 compound concentration (M): -5, supplement / serum: 50μM Thymidine + 50μM Hypoxanthine	108
log10 compound concentration (M): -5, supplement / serum: 50μMThymidine	13.3
log10 compound concentration (M): -5, supplement / serum: Hypoxanthine	85.7
log10 compound concentration (M): -5, supplement / serum: Hypoxanthine+Sodium Formate	51.9
log10 compound concentration (M): -5, supplement / serum: No metabolite	15.4
log10 compound concentration (M): -5, supplement / serum: Sodium Formate	87.3
log10 compound concentration (M): -5, supplement / serum: Vehicle	11.5
log10 compound concentration (M): -5.47712, supplement / serum: 50μM Hypoxanthine	77.9
log10 compound concentration (M): -5.47712, supplement / serum: 50μM Thymidine + 50μM Hypoxanthine	98
log10 compound concentration (M): -5.47712, supplement / serum: 50μMThymidine	14.1
log10 compound concentration (M): -5.47712, supplement / serum: Hypoxanthine	94.2
log10 compound concentration (M): -5.47712, supplement / serum: Hypoxanthine+Sodium Formate	90.1
log10 compound concentration (M): -5.47712, supplement / serum: No metabolite	14.8
log10 compound concentration (M): -5.47712, supplement / serum: Sodium Formate	95.7
log10 compound concentration (M): -5.47712, supplement / serum: Vehicle	13.5
log10 compound concentration (M): -5.95424, supplement / serum: 50μM Hypoxanthine	99.7
log10 compound concentration (M): -5.95424, supplement / serum: 50μM Thymidine + 50μM Hypoxanthine	111
log10 compound concentration (M): -5.95424, supplement / serum: 50μMThymidine	20.9
log10 compound concentration (M): -5.95424, supplement / serum: Hypoxanthine	101
log10 compound concentration (M): -5.95424, supplement / serum: Hypoxanthine+Sodium Formate	99
log10 compound concentration (M): -5.95424, supplement / serum: No metabolite	20.5
log10 compound concentration (M): -5.95424, supplement / serum: Sodium Formate	97.1
log10 compound concentration (M): -5.95424, supplement / serum: Vehicle	20.3
log10 compound concentration (M): -6.43136, supplement / serum: 50μM Hypoxanthine	109
log10 compound concentration (M): -6.43136, supplement / serum: 50μM Thymidine + 50μM Hypoxanthine	114
log10 compound concentration (M): -6.43136, supplement / serum: 50μMThymidine	41.5
log10 compound concentration (M): -6.43136, supplement / serum: Hypoxanthine	98
log10 compound concentration (M): -6.43136, supplement / serum: Hypoxanthine+Sodium Formate	104
log10 compound concentration (M): -6.43136, supplement / serum: No metabolite	43.5
log10 compound concentration (M): -6.43136, supplement / serum: Sodium Formate	98.9
log10 compound concentration (M): -6.43136, supplement / serum: Vehicle	44.8
log10 compound concentration (M): -6.90849, supplement / serum: 50μM Hypoxanthine	99.4
log10 compound concentration (M): -6.90849, supplement / serum: 50μM Thymidine + 50μM Hypoxanthine	101
log10 compound concentration (M): -6.90849, supplement / serum: 50μMThymidine	59.6
log10 compound concentration (M): -6.90849, supplement / serum: Hypoxanthine	99.5
log10 compound concentration (M): -6.90849, supplement / serum: Hypoxanthine+Sodium Formate	98.9
log10 compound concentration (M): -6.90849, supplement / serum: No metabolite	56.7
log10 compound concentration (M): -6.90849, supplement / serum: Sodium Formate	100
log10 compound concentration (M): -6.90849, supplement / serum: Vehicle	74.4
log10 compound concentration (M): -7.38561, supplement / serum: 50μM Hypoxanthine	67.2
log10 compound concentration (M): -7.38561, supplement / serum: 50μM Thymidine + 50μM Hypoxanthine	110
log10 compound concentration (M): -7.38561, supplement / serum: 50μMThymidine	61.2
log10 compound concentration (M): -7.38561, supplement / serum: Hypoxanthine	85.2
log10 compound concentration (M): -7.38561, supplement / serum: Hypoxanthine+Sodium Formate	83
log10 compound concentration (M): -7.38561, supplement / serum: No metabolite	50
log10 compound concentration (M): -7.38561, supplement / serum: Sodium Formate	76.9
log10 compound concentration (M): -7.38561, supplement / serum: Vehicle	56.4
log10 compound concentration (M): -7.86273, supplement / serum: 50μM Hypoxanthine	104
log10 compound concentration (M): -7.86273, supplement / serum: 50μM Thymidine + 50μM Hypoxanthine	105
log10 compound concentration (M): -7.86273, supplement / serum: 50μMThymidine	67.2
log10 compound concentration (M): -7.86273, supplement / serum: Hypoxanthine	88.9
log10 compound concentration (M): -7.86273, supplement / serum: Hypoxanthine+Sodium Formate	94.5
log10 compound concentration (M): -7.86273, supplement / serum: No metabolite	72.2
log10 compound concentration (M): -7.86273, supplement / serum: Sodium Formate	94.4
log10 compound concentration (M): -7.86273, supplement / serum: Vehicle	80.2
log10 compound concentration (M): -8.33985, supplement / serum: 50μM Hypoxanthine	104
log10 compound concentration (M): -8.33985, supplement / serum: 50μM Thymidine + 50μM Hypoxanthine	95
log10 compound concentration (M): -8.33985, supplement / serum: 50μMThymidine	77.3
log10 compound concentration (M): -8.33985, supplement / serum: Hypoxanthine	93.9
log10 compound concentration (M): -8.33985, supplement / serum: Hypoxanthine+Sodium Formate	101
log10 compound concentration (M): -8.33985, supplement / serum: No metabolite	90
log10 compound concentration (M): -8.33985, supplement / serum: Sodium Formate	92.2
log10 compound concentration (M): -8.33985, supplement / serum: Vehicle	92.8
log10 compound concentration (M): -8.81697, supplement / serum: 50μM Hypoxanthine	114
log10 compound concentration (M): -8.81697, supplement / serum: 50μM Thymidine + 50μM Hypoxanthine	113
log10 compound concentration (M): -8.81697, supplement / serum: 50μMThymidine	94
log10 compound concentration (M): -8.81697, supplement / serum: Hypoxanthine	94.5
log10 compound concentration (M): -8.81697, supplement / serum: Hypoxanthine+Sodium Formate	95.1
log10 compound concentration (M): -8.81697, supplement / serum: No metabolite	96.4
log10 compound concentration (M): -8.81697, supplement / serum: Sodium Formate	95.3
log10 compound concentration (M): -8.81697, supplement / serum: Vehicle	94.3
log10 compound concentration (M): -9.29409, supplement / serum: 50μM Hypoxanthine	96.5
log10 compound concentration (M): -9.29409, supplement / serum: 50μM Thymidine + 50μM Hypoxanthine	113
log10 compound concentration (M): -9.29409, supplement / serum: 50μMThymidine	95.6
log10 compound concentration (M): -9.29409, supplement / serum: Hypoxanthine	95.9
log10 compound concentration (M): -9.29409, supplement / serum: Hypoxanthine+Sodium Formate	94.7
log10 compound concentration (M): -9.29409, supplement / serum: No metabolite	104
log10 compound concentration (M): -9.29409, supplement / serum: Sodium Formate	98.8
log10 compound concentration (M): -9.29409, supplement / serum: Vehicle	97
log10 compound concentration (M): -9.77121, supplement / serum: 50μM Hypoxanthine	106
log10 compound concentration (M): -9.77121, supplement / serum: 50μM Thymidine + 50μM Hypoxanthine	124
log10 compound concentration (M): -9.77121, supplement / serum: 50μMThymidine	92.7
log10 compound concentration (M): -9.77121, supplement / serum: Hypoxanthine	95
log10 compound concentration (M): -9.77121, supplement / serum: Hypoxanthine+Sodium Formate	98.8
log10 compound concentration (M): -9.77121, supplement / serum: No metabolite	110
log10 compound concentration (M): -9.77121, supplement / serum: Sodium Formate	99.3
log10 compound concentration (M): -9.77121, supplement / serum: Vehicle	96.2

O=c1[nH]cc(F)c(=O)[nH]1 [5-fluorouracil]
cell viability, SW620
Conditions	0.0001 M	0.01 µM	0.0278 µM	0.0774 µM	0.215 µM	0.599 µM	1.67 µM	4.64 µM	12.9 µM	35.9 µM
metabolite supplement: 1uM folinic acid	6.83%	102%	100.2%	100%	99.7%	99%	83.6%	48.8%	26.2%	12%
metabolite supplement: 50uM thymidine	6.07% and 5.27%	106%	99.3%	97.1%	96.7%	94.2%	74.8%	49.1%	26.6% and 22.5%	10.4%
metabolite supplement: 50uM thymidine + 1uM folinic acid	7.17%	105%	106%	103%	103%	100%	83.2%	51.5%	26.3%	11.6%
metabolite supplement: 50uM thymidine + 250uM folic acid	6.77%	–	–	–	–	97.8%	79.1%	52.8%	26.3%	11.7%
metabolite supplement: 250uM folic acid	6.37%	–	–	–	–	–	83.4%	51.4%	27.3%	11.9%
metabolite supplement: vehicle	6.87% and 5.97%	99.5%	99.5%	101%	97.4%	95.9% and 98.1%	80.3%	53%	29.5% and 26.5%	11.6%
